Measurements taken from patent US9072729B2, “Method for treating fibrosis and cancer with imidazolium and imidazolinium compounds” (Agency for Science, Technology and Research, priority 2008, dated 2015).

Legend:
[1] = tested on: Huh7 cells; experiment: HCC xenograft model (Huh7 cells in Balb/c nude mice); assay type: in vivo, mouse; conditions: 3 weeks
Description: (§1) Balb/c Nude mice, 5-6 weeks old, were inoculated with 1×10^7 Huh7 cells in 0.2 ml volume of Matrigel/DMEM mix. Since not every mouse developed a tumor after the inoculation of HCC cells, only those with visible tumors (about 8 weeks after inoculation) were used for subsequent experiment. The tumor-bearing mice were randomly divided to the control and the treatment group. (n=3), respectively. Mice in the treatment group had free access to drinking water containing DBZIM (2 grams/liter) only, while mice in the control group had free access to Water only. The compound treatment lasted for 3 weeks. The tumor size was measured weekly, and the tumor volume was calculated using the formula: 0.52×width^2×length.
as §1, with “group” for “group.”, “compound 9 (IBN-9) at 0.6 g/l or 1.5 g/l” for “DBZIM (2 grams/liter)”, “water” for “Water”

[2] = tested on: MKN 28; experiment: Growth inhibition assay (MTT), MKN 28; assay type: cell-based, human; conditions: MKN 28, 72 h
Description: (§4) The percentage of growth inhibition was determined by using a MTT assay to measure viable cells. For the MTT assay, 1×10^3 cells per well were cultured in 96-well plates and treated with 0 to 100 μM of various types of IMSs for 72 h. After incubation for specified times at 37° C. in a humidified incubator, culture medium replaced with 10 μL of MTT reagent (5 mg/mL) contains 100 μL medium was added to each well and further incubated for 4 h. The reaction was stopped by adding 100 μL of DMSO. Absorbance was measured at 570 nm on a micro plate reader (SpectroMax 190, Molecular Devices). Data were presented from three separate experiments, and the percentage of IMSs induced cell growth inhibition was determined where DMSO-treated cells (control) were taken as 100%.
(§5) First, the cytotoxic effect of these drugs on these cells was investigated using the MTT assay. Cells were seeded into 96 well plates and treated with increasing concentrations of these synthetic organic molecules for 72 h, and then the cytotoxic effect was measured.

[3] = tested on: MDAMB231; experiment: Growth inhibition assay (MTT), MDAMB231; assay type: cell-based, human; conditions: MDAMB231, 72 h
Description: as §4, §5

[4] = tested on: MCF-10A; experiment: Growth inhibition assay (MTT), MCF-10A; conditions: 72 h
Description: as §4, §5

[5] = tested on: HLE cells; experiment: Growth inhibition assay (MTT), HLE; assay type: cell-based, human; conditions: Homo sapiens
Description: The effect of IMSs (IBN-15, IBN-19, IBN-24, IBN-25 and IBN-32) on the proliferative properties of p53 mutant cell line HLE was examined. The cytotoxicity activity and proliferation inhibition of IMSs in tumor cells were measured by MTT. […] The control experiments with DMSO alone (0.05% v/v) had no effect on cell proliferation. […] (Table 4) Microscopic observation on the cell cultures visually confirmed the inhibition on cell proliferation by IMSs. (FIG. 35)

[6] = tested on: HLE cells; experiment: Cell cycle analysis (PI flow cytometry); assay type: cell-based, human; conditions: 72 h
Description: FIG. 37. IMSs arrest Hepatocarcinoma cells. Cells were treated with vehicle and IBN 15, IBN 19, IBN 24, IBN 25 and IBN 32 for 72 h, and cell cycle distribution was assessed by flow cytometry. A) Example FACS profiles of propidium iodide-stained control cells, and cells treated with IMSs respectively. B) % of cells in cell cycle phase C) % of cells in subG0 population. Each value is the mean±S.D. of three determinations.
To perform cell cycle distribution analysis, 4×10^5 cells were plated in 10 cm dish. The cells (70% confluence) were serum-starved for 24 h to synchronize them in the G0 phase of the cell cycle. After 24 h incubation, the cells were replaced with fresh 10% DMEM medium and then treated 60 μM of IBN-15, 90 μM of IBN-19, 90 μM of IBN-24, 30 μM of […] and 20 μM of IBN-32) and 0.045% DMSO as control for 72 h. The floating and trypsinized adherent cells were collected and washed with PBS. The cell pellets were resuspended in 1 ml of PBS and fixed by the addition of 70% ice-cold ethanol and stored at −20° C. After incubation for 24 hr, the cells were re-pelleted by centrifugation, the cells were washed once with PBS and resuspended in 0.1 mL of PBS containing 100 μg/ml of RNase and then incubated at 37° C. for 15 min. Finally, the cells were stained with 0.5 ml of PI solution (100 μg/mL in PBS) for 30 min. Cell cycle distribution was detected by a BD FACS array flow cytometer (Becton Dickinson). Cells with sub-G0 DNA were classified as apoptotic cells.

[7] = tested on: caspase 3, caspase 9 and PARP; experiment: Western blot of caspase-3, caspase-9 and PARP cleavage in HLE; assay type: cell-based, human; conditions: 72 h
Description: FIG. 38. IMSs, induce cleavage of caspase-3, caspase-9 and PARP. Western blot analysis for the effect of IBN 15, IBM 19, IBN 24, IBM 25, IBN 32 on the cleavage of caspase-3, Caspase-9 and PARP in HLE cells after 72 h exposure to indicated doses of IMSs.
The HLE cells were seeded at a density of 4×10^5 in 10 cm dish. After 24 h incubation, the cells were replaced with fresh 10% DMEM medium and then treated with 60 μM of IBN-15, 90 μM of IBN-19, 90 μM of IBN-24, 30 μM of IBN-25 and 20 μM of IBN 32 and 0.045% DMSO as control for 72 h. Whole cell lysates were prepared on day 3 with lysis buffer [125 mM Tris (pH 7.4), 2% Sodium dodecyl sulfate, 10% glycerol, 6M urea and a protease inhibitor cocktail (Sigma) and 0.02% Bromophenol blue]. The lysates were sonicated for 30 seconds and then heated for 5 mins at boiling temperature. The lysates were centrifuged at 13000 rpm for 10 mins and the protein concentration of each sample was estimated using the BCA protein assay. The lysates was then mixed with 5% 2-mercaptoethanol and stored at −80 C. For Western blotting, samples containing 50 μg of total cell lysate were loaded onto a SDS-PAGE and subjected to electrophoresis. Proteins were transferred to a nitrocellulose membrane and then blocked with 5% non-fat dry milk in Tris buffer saline containing 0.1% Tween 20 for 60 min at 37 C. The membranes were probed with a primary antibody overnight at 4 C in TEST containing 5% Bovine serum albumin. Then the membrane was incubated with horseradish peroxidase (HRP)-conjugated anti-rabbit or anti-mouse secondary antibodies (GE Health care, Chalfont St Giles, UK). Detection was performed with enhanced chemiluminescence (ECL) reagent (Amersham Arlington Heights, Ill.) according to the manufacturer's protocol. Rabbit polyclonal Phospho-p53 (Ser15, 20, 46, 392), anti-caspase-9, anti-caspase-3, anti-PARP antibodies were purchased from Cell Signaling Technology, Inc. (Beverly, Mass., USA). Antibodies against p53 and p21 were purchased from Santa Cruz Biotechnology (Santa Cruz, Calif., USA).

[8] = tested on: p53 signaling pathway-associated gene expression in HLE cells; experiment: Real-time PCR array of p53 signaling pathway-associated genes; assay type: cell-based, human; conditions: 48 h
Description: FIG. 42. Real-Time PCR array analysis of p53 signaling pathway-associated gene expression. (A) Anti-apoptotic genes. (B) Growth inhibition gene SESN2. (C) Cell cycle check point genes. (D) Cell proliferation genes. (E) DNA repair gene ATM. The relative level of gene expression was normalized with housekeeping gene GAPDH. Values are expressed as mean±standard deviation.
Cells were seeded at a density of 4×10^5 cells per dish in 10 cm dishes. Next day, the cells were exposed to 90 uM of IBN-19, 90 uM of IBN-24, 40 uM of IBN-25 and 0.045% of DMSO (Dimethyl Sulphoxide) as the control. After 48 hrs, total RNAs were extracted from the cells using Nucleospin RNA II kit as per the manufacturer's istructions. RNA quality and yield were evaluated after spectrophotometer measurements.
The human apoptosis PCR array (RT^2 Profiler) was used to analyze mRNA levels of 84 key genes involved in apoptosis, in a 96-well format, according to the manufacturer's instructions (Super Array Bioscience). First-strand cDNA was synthesized with 1 μg of RNA by using a PCR array first strand-synthesis kit (C-03; Super array Bioscience). This kit uses reverse transcriptase (Power Script; Super array Bioscience) and a combination of random primers and oligo dT primers. The total volume of the reaction was 20 μL diluted to 100 μL. PCR reactions were performed using real-time PCR (79s00HT 96-well block with RT^2 Real-Time SYBR Green PCR master mix PA-012; Applied Biosystems Instruments 7500). The total volume of the PCR reaction was 25 μl. An equivalent of […] of RNA was applied to the PCR reaction. The thermocycler parameters were 95° C. for 10 minutes, followed by 40 cycles of 95° C. for 15 seconds and 60° C. for 1 minute. Relative changes in gene expression were calculated using the ΔΔCt (cycle threshold) method. An average of the number of cycles of the five housekeeping genes, GAPDH, Actin-β, β2m, Hprt1, and Rpl13d, was used to normalize the expression between samples. The expression data are presented as fold regulation. GAPDH gene expression levels were utilized as an internal control to normalize the data. Reported fold changes in expression are the ratios of treatment over control values.
To obtain more information on how the IMSs influence other gene expression in the HLE cells, 84 genes related to p53 signal transduction were profiled by using the RT^2 Profiler array (Super Array Bioscience) (FIG. 42A, B, C, D, E). The array includes keys genes relevant to p53, apoptosis, cell cycle, cell growth, proliferation, differentiation, and DNA repair.

[9] = tested on: HLE cells; experiment: Annexin V staining and flow cytometry, HLE; assay type: cell-based, human; conditions: 24 hr, TRAIL 100 ng/ml
Description: (§2) FIG. 22. […] HLE or HepG2 cells were incubated with DBZIM of various concentrations for 6 hr, and assayed for caspase 3/7 activity and LDH releasing (expressed as % toxicity). DBZIM induced apoptosis as characterized by annexin V staining using flow cytometer in HLE (E) and HepG2 (F). Scatter plot and histogram gave the representative information on the cell population distribution while bar graphs quantified the percentage of apoptotic cells from the histogram. HLE and HepG2 cells were treated by DBZIM of various concentrations for 24 hr before harvesting for annexin V staining and flow cytometric analysis.
(§3) HLE and HepG2 cells were treated with various concentrations of DBZIM or TRAIL (100 ng/ml) for 24 hr, harvested and labeled with Annexin V-FITC (BioVision, CA, USA). The labeled cells were analysed by flow cytometry FACSCalibur ([…], NJ, USA) and CellQuest software. Cells showing green staining in the plasma membrane were considered as apoptotic cells.

[10] = tested on: HepG2 cells; experiment: Annexin V staining and flow cytometry, HepG2; assay type: cell-based, human; conditions: HepG2, 24 hr; TRAIL 100 ng/ml
Description: as §2, §3

## CC(=O)Oc1ccc(Cn2cc[n+](-c3c(C)cc(C)cc3C)c2)cc1.[Cl-] [compound 9, 1-(2,4,6-trimethylphenyl)-3-(4-acetate-benzyl)-imidazolium chloride]
[1]; 0.6 g/l in drinking water
  reduction of tumor volume: 43%
[1]; 0.6 g/l or 1.5 g/l in drinking water
  body weight or gross pathology: No change in body weight or gross pathology
[1]; 1.5 g/l in drinking water
  reduction of tumor volume: 62%
[2]
  IC50: 10 µM
[3]
  IC50: 20 µM
[4]
  IC50 in normal breast epithelial cells: no IC50

## Cc1n(Cc2ccccc2)cc[n+]1Cc1ccccc1C(F)(F)F.[Cl-] [IBN-25, 1-benzyl-3-(2-trifluoromethylbenzyl)-2-methylimidazolium chloride]
[5]; 72 h
  IC50: 30 µM
[5]; 120 h
  IC50: 35 µM
[6]; at respective IC-50, control 24%
  cells in the S phase: 14.3%
[6]; at respective IC-50, control 30%
  cells in the G2/M phase: 19.4%
[6]; at respective IC-50, control 50%
  cells in the G1 phase: 34.5%
[7]
  activation and cleavage of caspase 3, caspase 9 and PARP: induced significant activation and cleavage
[8]
  anti-apoptotic gene BCl-2 expression: significantly down regulated
  cell proliferation genes (Mcl1, Egr1, Foxo3, Jun, Mdm4, Nf1, Prm1D, Sesn1, E2f11, Prkca, Brca1): significantly down regulated
[8]; IBN-19 90 uM, IBN-24 90 uM, IBN-25 40 uM
  increase of ATM gene expression vs control: 9 folds

## Cc1n(Cc2ccccc2)cc[n+]1Cc1ccccc1.[Br-] [compound C, 1,3,-Dibenzyl-2-methylimidazolium bromide]
[2]
  IC50: 35 µM
[3]
  IC50: 35 µM
[4]
  IC50 in normal breast epithelial cells: no IC50

B1: TRAIL: TNF-Related Apoptosis Inducing Ligand, used as a positive control for apoptosis (protein, UniProt P50591 1-281, looked up)
Tumor necrosis factor ligand …: MAMMEVQGGPSLGQTCVLIVIFTVLLQSLCVAVTYVYFTNELKQMQDKYSKSGIACFLKEDDSYWDPNDEESMNSPCWQVKWQLRQLVRKMILRTSEETISTVQEKQQNISPLVRERGPQRVAAHITGTRGRSNTLSSPNSKNEKALGRKINSWESSRSGHSFLSNLHLRNGELVIHEKGFYYIYSQTYFRFQEEIKENTKNDKQMVQYIYKYTSYPDPILLMKSARNSCWSKDAEYGLYSIYQGGIFELKENDRIFVSVTNEHLIDMDHEASFFGAFLVG
[9]
  apoptosis (annexin V staining): not in HLE cells
[10]
  apoptosis (annexin V staining): only induced apoptosis in HepG2
